pEC50: −log10 of the molar value. Like-named read-outs stand apart in the source and are kept apart here. One block for each molecule: values may come before it. Non-standard residues stand in square brackets, D forms with d. Residues, ends and D or L forms follow the SMILES beside them. *: point of attachment. Sta = CC(C)C[C@H](N)[C@@H](O)CC(=O)O; Isovaleryl = CC(C)CC(=O)*
Columns and labels:
[1] = test system: vWF depolymerizing activity of BAECcm; assay: Inhibitor profile of the vWF depolymerizing activity of BAEC conditioned medium; format: biochemical
purified vWF [2] = target: T1, purified vWF (Homo sapiens, UniProt P04275); assay: Effect of purified reductants or thiol reagents on the average multimer size of purified vWF (agarose gel electrophoresis); format: biochemical; design: Purified vWF from human plasma was obtained from the Baker Medical Research Institute; tissue Baker Medical Research Institute, Melbourne; host or cells: human plasma; conditions: for effect on average multimer size of purified vWF: GSH 20 μM, PDI 10 nM, thioredoxin 10 nM, 24 hours at 37° C.
purified vWF [3] = target: T1, purified vWF; assay: Effect of purified reductants on affinity of purified vWF for collagen; format: biochemical; conditions: 24 hours at 37° C.; for effect on vWF collagen affinity: PDI at 10 nM
Procedure: Confluent HUVEC's were washed with M199 without FCS and incubated in M199 for up to 8.5 hours. The HUVECS were stimulated to release vWF by adding […] human α-thrombin after 0.5 hours. The thrombin was quenched after 2 hours incubation by adding 5 mM D-Phe-Pro-Arg-chloromethyl ketone. Samples of the conditioned medium were collected at discrete time intervals and analyzed for vWF by 1% agarose gel electrophoresis and Western blotting or vWF antigen levels and collagen binding affinity (not shown). vWF antigen levels were determined using ELISA by capturing the vWF with adsorbed anti-vWF polyclonal antibodies and detecting using peroxidase conjugated anti-vWF polyclonal antibodies (Favoloro et al., 1991). Collagen binding affinity was assessed by incubating the vWF in plastic wells coated with type I/III collagen for 1 hour and measuring the bound vWF using peroxidase conjugated anti-vWF antibodies (Favoloro et al., 1991). Large vWF multimers bind to collagen with up to ˜100-fold higher affinity than smaller multimers, therefore affinity for collagen is a useful indicator of average vWF multimer size.
The effect of incubation of purified vWF with GSH, PDI, or GSH and PDI, for 24 hours at 37° C. on the affinity of vWF for collagen was analysed. […] The half-maximal effect of GSH on vWF collagen affinity was ˜20 μM. […] The half-maximal effect of GSH in the presence on PDI on vWF collagen affinity was similar to that of GSH alone, ˜20 μM.

plasma vWF = plasma vWF (Homo sapiens, UniProt P04275); conditions: GSH 20 μM added to BAECcm
Procedure: To test whether exogenous GSH could augment vWF depolymerization by BAECcm, plasma vWF was incubated with BAECcm, or BAECcm and GSH (20 μM), and multimer size measured by either agarose gel electrophoresis or collagen binding.

vWF = target: T2, vWF (Homo sapiens, UniProt P04275); assay: Reduction in average multimer size of vWF in TTP plasma (agarose gel, collagen binding/vWF antigen); format: biochemical; conditions: chelation of Ca2+
T2 construct: from tissue; host or cells: plasma of a TTP patient (vWF); human platelet concentrates (TSP-1)
Procedure: TTP plasma was incubated with 20 mM Hepes, 0.14M NaCl, 1 mM CaCl2, 1 mM MgCl2, pH 7.4 buffer, conditioned media of HMEC-1 cells or the Hepes buffer containing TSP-1 for 1 or 24 hours at 37° C. Aliquots of the reactions were diluted 10-fold in the Hepes buffer and assayed for collagen binding affinity and vWF antigen as described by Favaloro et al. (1991). On some occasions, aliquots of the reactions were resolved on 1% agarose gel electrophoresis (Ruggeri and Zimmerman, 1980), transferred to PVDF membrane (DuPont NEN, Boston, Mass.), blotted with 2 μg per ml of horse radish peroxidase conjugated anti-vWF polyclonal antibodies (DAKO Corporation, Carpinteria, Calif.) and visualized using chemiluminescence (DuPont NEN, Boston, Mass.).
TSP-1 is a major component of platelet α-granules which is secreted upon platelet activation and aggregation. TSP-1 was purified to homogeneity from pooled outdated human platelet concentrates (Murphy-Ullrich and Mosher. 1985; Hogg et al., 1997) and tested for vWF reductase activity. Buffers containing 0.1 mM CaCl2 were used throughout the chromatographic purification of TSP1. […] In particular, the very large multimers were lost (see bracket in FIG. 3A). […] TSP-1-mediated reduction in vWF multimer size was concentration- and time-dependent (FIG. 3B). Three different preparations of platelet TSP-1 had the same vWF reducing activity (not shown). It is noteworthy that the molar ratio of TSP-1 to vWF influenced the extent of reduction in vWF multimer size (FIG. 3B). The vWF reductase activity in endothelial cell conditioned medium is inhibited by EDTA. In accordance with this observation, chelation of Ca^2+ with EDTA ablated the vWF reductase activity of TSP-1 (not shown).

purified vWF [4] = target: T1, purified vWF; assay: MPB labelling assay for reduction of vWF disulfide bond(s) / formation of new thiols in vWF; format: biochemical; design: Purified vWF from human plasma was obtained from the Baker Medical Research Institute; tissue Baker Medical Research Institute, Melbourne (vWF); host or cells: human plasma (vWF); human platelet concentrates (TSP-1); conditions: chelation of Ca2+ in the reactions
Procedure: The biotin-linked maleimide, MPB, was used to measure reduction of vWF disulfide bond(s) in BAECcm. […] Free thiol(s) formed in vWF by reduction of disulfide bonds bond(s) were labelled with MPB (100 μM) and the unreacted MPB was quenched with GSH (200 μM). N-ethylmaleimide reacts rapidly with free thiols with a second order rate constant of ˜10^4 M^−1s^−1 at pH 8 (Torchinski and Dixon, 1974). Therefore, the half life for reaction of free thiols in vWF with the maleimide moiety of MPB was anticipated to be in the order of a few seconds. Aliquots of the reactions containing MPB-labelled vWF were incubated in ELISA plate wells coated with anti-vWF polyclonal antibodies. The adsorbed vWF was incubated with streptavidin peroxidase to measure the incorporated MPB. The control for vWF labelling was incubation and labelling of BAECcm alone, prior to addition of vWF. This reaction represented the contribution to the assay of MPB labelling of endogenous vWF and/or other vWF binding proteins in the BAECcm. […]
Reduction of disulfide bonds in vWF was anticipated to result in a net increase in free thiols in the vWF population. […] The MPB-labeled vWF was incubated in ELISA plate wells coated with anti-human vWF polyclonal antibodies and the biotin label was detected using StreptABComplex/HRP (DAKO Corporation, Carpinteria, Calif.).

[5] = measured by agarose gel electrophoresis or collagen binding, BAECcm treated with agent

Molecule: CC(C)C[C@H](NC(=O)[C@H]1O[C@@H]1C(=O)O)C(=O)NCCCCN=C(N)N [E-64]
- effect on vWF depolymerizing activity of BAECcm [1, 5]: inactivated

Molecule: CC(C)CC(=O)N[C@H](C(=O)N[C@H](C(=O)N[C@@H](CC(C)C)[C@@H](O)CC(=O)N[C@@H](C)C(=O)N[C@@H](CC(C)C)[C@@H](O)CC(=O)O)C(C)C)C(C)C [pepstatin] (Isovaleryl-VV[Sta]A[Sta]-OH)
- effect on vWF depolymerizing activity of BAECcm [1, 5]: not inhibited

Molecule: CC(C)C[C@H](NP(=O)(O)O[C@@H]1O[C@@H](C)[C@H](O)[C@@H](O)[C@H]1O)C(=O)N[C@@H](Cc1c[nH]c2ccccc12)C(=O)O [phosphoramidon]
- effect on vWF depolymerizing activity of BAECcm [1, 5]: not inhibited

Molecule: NC(=O)CI [IAM, iodoacetamide]
- effect on average multimer size of vWF (purified vWF [2]; incubation of vWF with IAM or NEM alone): did not have any discernible effect
- effect on vWF depolymerizing activity of BAECcm [1, 5]: inactivated

Molecule: aprotinin
- effect on vWF depolymerizing activity of BAECcm [1, 5]: not inhibited

- effect on vWF collagen affinity (purified vWF [3]): reduced the collagen affinity of vWF
- pEC50 (purified vWF [3]; GSH alone, read-out: half-maximal effect on vWF collagen affinity): ~4.70
- pEC50 (purified vWF [3]; GSH in the presence of PDI, read-out: half-maximal effect on vWF collagen affinity in the presence of PDI): ~4.70
- vWF depolymerization over that by BAECcm alone (plasma vWF; agarose gel electrophoresis): small increase
- collagen affinity of vWF (plasma vWF; p<0.05): significant reduction
Molecule: N[C@@H](CCC(=O)N[C@@H](CS)C(=O)NCC(=O)O)C(=O)O [GSH, reduced glutathione]
- effect on average multimer size of purified vWF (purified vWF [2]): reduction of the average multimer size of vWF

Molecule: O=C(O)CN(CCN(CC(=O)O)CC(=O)O)CC(=O)O [EDTA]
- effect on vWF reductase activity of TSP-1 (vWF): ablated
- effect on TSP-1-catalysed formation of free thiols in vWF (purified vWF [4]): ablated
- effect on vWF depolymerizing activity of BAECcm [1]: ablated activity

Molecule: thioredoxin
- effect on average multimer size of purified vWF (purified vWF [2]): reduction of the average multimer size of vWF

Molecule: PDI: purified reductant
- effect on vWF collagen affinity (purified vWF [3]): reduced vWF collagen affinity to the same extent as 20 μM GSH
- effect on average multimer size of purified vWF (purified vWF [2]): reduction of the average multimer size of vWF

Molecule: CC(=O)N[C@@H](CC(C)C)C(=O)N[C@@H](CC(C)C)C(=O)N[C@H](C=O)CCCNC(=N)N [leupeptin]
- effect on vWF depolymerizing activity of BAECcm [1, 5]: not inhibited

Molecule: CC(C)C[C@H](NC(=O)[C@@H](NC(=O)N[C@@H](Cc1ccccc1)C(=O)O)[C@@H]1CCN=C(N)N1)C(=O)N[C@H](C=O)Cc1ccccc1 [chymostatin]
- effect on vWF depolymerizing activity of BAECcm [1, 5]: not inhibited

Molecule: NCCc1ccc(S(=O)(=O)F)cc1 [4-(2-aminoethyl)benzenesulfonylfluoride]
- effect on vWF depolymerizing activity of BAECcm [1, 5]: not inhibited
